Experiments:
[1] = human gut metagenome, 24 h, 2 µM
[2] = human gut metagenome, 24 h, 2 µM; remark: listed apart in the source
[3] = human gut metagenome, 24 h, 2 µM; remark: listed apart in the source
[4] = (§1) The drug is tested on WLS-077 corresponding to human gut metagenome with ENA study accession number: PRJEB37062 and ENA sample accession number: ERS12561750 for biotransformation under anaerobic condition. The drug concentrations were measured over 9 timepoints collected between 0 and 24 hours of incubation by liquid-chromatography-coupled mass spectrometry (LC–MS); details: 2 µM
[5] = human gut metagenome, 24 h, 2 µM; remark: listed apart in the source
[6] = as §1, with “WLS-350” for “WLS-077”, “ERS12561789” for “ERS12561750”; details: 2 µM
[7] = as §1, with “WLS-038” for “WLS-077”, “ERS12561745” for “ERS12561750”; details: 2 µM
[8] = human gut metagenome, 24 h, 2 µM; remark: listed apart in the source
[9] = human gut metagenome, 24 h, 2 µM; remark: listed apart in the source
[10] = human gut metagenome, 24 h, 2 µM; remark: listed apart in the source
[11] = as §1, with “Z-026” for “WLS-077”, “to” for “to human gut”, “ERS12561825” for “ERS12561750”; details: 2 µM
[12] = as §1, with “Z-013” for “WLS-077”, “rabbit” for “human”, “ERS12561813” for “ERS12561750”; details: 2 µM
[13] = as §1, with “Z-029” for “WLS-077”, “rat” for “human”, “ERS12561828” for “ERS12561750”; details: 2 µM
[14] = as §1, with “Z-024” for “WLS-077”, “pig” for “human”, “ERS12561823” for “ERS12561750”; details: 2 µM
[15] = as §1, with “Z-027” for “WLS-077”, “to” for “to human gut”, “ERS12561826” for “ERS12561750”; details: 2 µM
[16] = as §1, with “Z-017” for “WLS-077”, “mouse” for “human”, “ERS12561816” for “ERS12561750”; details: 2 µM
[17] = as §1, with “Z-021” for “WLS-077”, “to” for “to human gut”, “ERS12561820” for “ERS12561750”; details: 2 µM
[18] = as §1, with “Z-016” for “WLS-077”, “mouse” for “human”, “ERS12561815” for “ERS12561750”; details: 2 µM
[19] = as §1, with “Z-011” for “WLS-077”, “mouse” for “human”, “ERS12561811” for “ERS12561750”; details: 2 µM
Further: call rule not given here.

SMILES	Bacterial Biotransformation [1]	Bacterial Biotransformation [2]	Bacterial Biotransformation [3]	Bacterial Biotransformation [4]	Bacterial Biotransformation [5]	Bacterial Biotransformation [6]	Bacterial Biotransformation [7]	Bacterial Biotransformation [8]	Bacterial Biotransformation [9]	Bacterial Biotransformation [10]	Bacterial Biotransformation [11]	Bacterial Biotransformation [12]	Bacterial Biotransformation [13]	Bacterial Biotransformation [14]	Bacterial Biotransformation [15]	Bacterial Biotransformation [16]	Bacterial Biotransformation [17]	Bacterial Biotransformation [18]	Bacterial Biotransformation [19]
CN(C)CCc1c[nH]c2ccc(CS(=O)(=O)N3CCCC3)cc12 [ALMOTRIPTAN]	Compound NOT metabolized	Compound NOT metabolized	Compound NOT metabolized	Compound NOT metabolized	Compound metabolized	Compound NOT metabolized	Compound NOT metabolized	Compound metabolized	Compound NOT metabolized	Compound NOT metabolized									
CC(=O)Oc1ccc(C(c2ccc(OC(C)=O)cc2)c2ccccn2)cc1 [BISACODYL]	Compound metabolized	Compound metabolized	Compound metabolized	Compound metabolized	Compound metabolized	Compound metabolized	Compound metabolized	Compound metabolized	Compound metabolized	Compound metabolized									
Cc1nc(Nc2ncc(C(=O)Nc3c(C)cccc3Cl)s2)cc(N2CCN(CCO)CC2)n1 [DASATINIB ANHYDROUS]	Compound metabolized	Compound NOT metabolized	Compound metabolized	Compound NOT metabolized	Compound metabolized	Compound NOT metabolized	Compound metabolized	Compound metabolized	Compound metabolized	Compound metabolized									
CNCC[C@H](Oc1cccc2ccccc12)c1cccs1 [DULOXETINE]	Compound metabolized	Compound NOT metabolized	Compound NOT metabolized	Compound NOT metabolized	Compound NOT metabolized	Compound NOT metabolized	Compound NOT metabolized	Compound metabolized	Compound metabolized	Compound NOT metabolized									
COCCCC/C(=N\OCCN)c1ccc(C(F)(F)F)cc1.O=C(O)/C=C\C(=O)O [FLUVOXAMINE MALEATE]	Compound NOT metabolized	Compound NOT metabolized	Compound metabolized	Compound NOT metabolized	Compound metabolized	Compound NOT metabolized	Compound NOT metabolized	Compound metabolized	Compound NOT metabolized	Compound NOT metabolized									
CC#CCn1c(N2CCC[C@@H](N)C2)nc2c1c(=O)n(Cc1nc(C)c3ccccc3n1)c(=O)n2C [LINAGLIPTIN]	Compound NOT metabolized	Compound NOT metabolized	Compound NOT metabolized	Compound NOT metabolized	Compound NOT metabolized	Compound NOT metabolized	Compound NOT metabolized	Compound NOT metabolized	Compound NOT metabolized	Compound NOT metabolized									
CN1CCN(C2=Nc3ccccc3Oc3ccc(Cl)cc32)CC1.O=C(O)CCC(=O)O [LOXAPINE SUCCINATE]	Compound NOT metabolized	Compound NOT metabolized	Compound NOT metabolized	Compound NOT metabolized	Compound NOT metabolized	Compound NOT metabolized	Compound NOT metabolized	Compound NOT metabolized	Compound NOT metabolized	Compound NOT metabolized									
N#Cc1ccc2c(c1)N(CCCN1CCC(O)CC1)c1ccccc1S2 [PERICIAZINE]	Compound metabolized	Compound NOT metabolized	Compound metabolized	Compound NOT metabolized	Compound NOT metabolized	Compound NOT metabolized	Compound metabolized	Compound metabolized	Compound NOT metabolized	Compound NOT metabolized									
CNNCc1ccc(C(=O)NC(C)C)cc1 [PROCARBAZINE]	Compound metabolized	Compound NOT metabolized	Compound NOT metabolized	Compound NOT metabolized	Compound NOT metabolized	Compound NOT metabolized	Compound NOT metabolized	Compound NOT metabolized	Compound NOT metabolized		Compound metabolized	Compound metabolized	Compound NOT metabolized	Compound metabolized					
CN(C/C=C/C#CC(C)(C)C)Cc1cccc2ccccc12 [TERBINAFINE]	Compound metabolized		Compound NOT metabolized		Compound NOT metabolized	Compound metabolized		Compound metabolized	Compound NOT metabolized		Compound NOT metabolized	Compound NOT metabolized	Compound NOT metabolized	Compound NOT metabolized	Compound NOT metabolized	Compound NOT metabolized	Compound NOT metabolized	Compound NOT metabolized	Compound NOT metabolized

Second part, the compound after the results:

Bacterial Biotransformation [1]	Bacterial Biotransformation [2]	Bacterial Biotransformation [3]	Bacterial Biotransformation [4]	Bacterial Biotransformation [5]	Bacterial Biotransformation [6]	Bacterial Biotransformation [7]	Bacterial Biotransformation [8]	Bacterial Biotransformation [9]	Bacterial Biotransformation [10]	Bacterial Biotransformation [11]	Bacterial Biotransformation [12]	Bacterial Biotransformation [13]	Bacterial Biotransformation [14]	Bacterial Biotransformation [15]	Bacterial Biotransformation [16]	Bacterial Biotransformation [17]	Bacterial Biotransformation [18]	Bacterial Biotransformation [19]	SMILES
Compound metabolized	Compound NOT metabolized	Compound NOT metabolized	Compound metabolized	Compound metabolized	Compound NOT metabolized	Compound metabolized	Compound metabolized	Compound metabolized	Compound metabolized										CCCCC(=O)O[C@]1(C(=O)CO)[C@@H](C)C[C@H]2[C@@H]3CCC4=CC(=O)C=C[C@]4(C)[C@@]3(F)[C@@H](O)C[C@@]21C [BETAMETHASONE VALERATE]
Compound metabolized	Compound metabolized	Compound metabolized	Compound metabolized	Compound metabolized	Compound metabolized	Compound metabolized	Compound metabolized	Compound metabolized	Compound metabolized										CCOC(=O)C1=C(C)NC(C)=C(C(=O)OC)C1c1cccc([N+](=O)[O-])c1 (configuration not stated) [NITRENDIPINE]
Compound NOT metabolized	Compound NOT metabolized	Compound metabolized	Compound metabolized	Compound metabolized	Compound NOT metabolized	Compound metabolized	Compound NOT metabolized	Compound metabolized	Compound metabolized										O=C([O-])C[C@H](O)C[C@H](O)/C=C/c1c(C2CC2)nc2ccccc2c1-c1ccc(F)cc1.O=C([O-])C[C@H](O)C[C@H](O)/C=C/c1c(C2CC2)nc2ccccc2c1-c1ccc(F)cc1.[Ca+2] [PITAVASTATIN CALCIUM]
Compound metabolized	Compound metabolized	Compound metabolized	Compound metabolized	Compound metabolized	Compound metabolized	Compound metabolized	Compound metabolized	Compound metabolized	Compound metabolized	Compound metabolized	Compound metabolized	Compound metabolized	Compound metabolized	Compound NOT metabolized	Compound metabolized	Compound metabolized	Compound metabolized	Compound metabolized	O=C(O)c1cc(/N=N/c2ccc(S(=O)(=O)Nc3ccccn3)cc2)ccc1O [SULFASALAZINE]
